# Measurements reported in patent EP4455142A1, “NOVEL INHIBITOR OF QPCTL AND/OR QC” (Scenic Immunology B.V., priority 2023, dated 2024).
# Legend:
# [1] = Microsomal stability, rat (RLM); format: in vitro ADME; conditions: liver microsomes; SD rat microsomes, 0.5 mg protein/mL, 1 µM test compound
# Procedure: (§1) In order to assess metabolic stability of test compounds, commercially acquired CD-1 mouse liver microsome preparations were incubated in 100 µL at a final concentration of 0.5 mg protein/mL, 1 µM test compound, 0.99% methanol and 0.01% DMSO, after a 10 minute pre-incubation at 37°C and addition of 0.1 volumes 10 U/mL NADPH in 10 mM MgCl2. Reactions were stopped by addition of 300 µL cold acetonitrile containing internal standards at t = 0, 5, 10, 20, 30, and 60 minutes. Samples were submitted to LC-MS/MS analysis subsequently and the slope of linear regression of time versus In(% Remaining concentration) was derived to calculate t½ as t½= In(2) /(-Slope). Then Clint(mic) and Clint(liver) were calculated as follows: CLint(mk) = (0.693)/(In vitro T1/2) · (1)/(mg/mL microsomal protein in reaction system) [formula] CLint(liver) = CLint(mic) · (mg microsomes)/(g liver) · (g liver)/(kg body weight) [formula]
# (§2) The same procedure was performed for human microsomes, SD rat microsomes and (beagle) dog microsomes.
# Where 45 mg microsomal protein/g liver and 40 g liver/kg rat bodyweight were used as standardized parameters for rat microsomes.
# [2] = target: T1, human isoQC (Homo sapiens, UniProt Q9NXS2); test: Assay 1 - isoQC potency, fluorescent enzymatic assay (H-Gln-AMC, coupled pGAPase detection); format: biochemical; conditions: recombinant isoQC, 1 hour at 37°C
# T1 construct: The Golgi luminal, enzymatically active region of human isoQC (S53-L382; see, e.g., Huang et al., 2011); GST (with enterokinase site) (N, cleaved yes); made in house; host or cells: E. coli
# Text: The Golgi luminal, enzymatically active region of human isoQC (S53-L382; see, e.g., Huang et al., 2011) was obtained by expression in E. coli of an N-terminally GST Enterokinase and C-terminally 6xHis tagged construct in the pET41(+) vector and subsequent purification using Ni-NTA IMAC. Enterokinase digestion ensued, followed by another Ni-NTA IMAC purification, Superdex75 based size exclusion and finally a spin concentration using a 10 kDa molecular weight cutoff. The final protein is formulated in 50 mM Tris-HCl, 150 mM NaCl, 50% Glycerol, pH 7.8.
# (§3) Pyroglutamylation was measured by conversion of glutamine-4-amino-7-methylcoumarine (H-Gln-AMC, Bachem) to pyroglutamyl-AMC, which is subsequently a specific substrate for pyroglutamylaminopeptidase (pGAPase, Qiagen), releasing free AMC which can be fluorescently detected. For a typical inhibition assay, 7.5 µL aliquots of threefold dilutions of test compound in 50mM Tris pH8 buffer were plated in 384-well plates. 15 µL 20 µM hGln-AMC (diluted from a 40 mM stock dissolved in 25 mM HEPES using 50 mM Tris-HCl 25 pH 8.0) was added to each well. Finally, 7.5 µL, 3 ng/µL recombinant isoQC enzyme was added and the reaction mixture was incubated for 1 hour at 37°C. A 5 minute incubation at 98°C was then performed to denature the isoQC enzyme and stop the reaction.
# To detect the amount of pyroglutamyl-AMC formed, a 0.125 U/mL pGAPase enzyme diluted in 50 mM Tris-HCl pH 8.0 containing 10 mM dithiothreitol (DTT) solution was prepared. 25 µL of the pyroglutamylation reaction mixture was transferred into an empty plate and to that, 25 µL of the pGAPase enzyme solution was added. Plates were then incubated for 25 minutes at room temperature before fluorescence readings were taken on an Envision2 plate reader with excitation set at 380 nm and emission at 450 nm. DMSO concentrations during the assay never exceeded 1% and activities were compared to controls containing only the same amount of DMSO and no test compound. Controls were taken along containing pyroglutamylated-AMC (Bachem, dissolved at 10 mM in DMSO) instead of H-Gln-AMC to control for pGAPase inhibition.
# (§4) IC50 values are calculated using non-linear regression analysis with GraphPad Prism software.
# [3] = Microsomal stability, dog (DLM); format: in vitro ADME; conditions: liver microsomes; (beagle) dog microsomes, 0.5 mg protein/mL, 1 µM test compound
# Procedure: as §1, §2
# Where 45 mg microsomal protein/g liver and 32 g liver/kg dog bodyweight were used as standardized parameters for […].
# [4] = Kinetic solubility; format: physicochemical; conditions: aqueous buffer; 50 mM phosphate buffer (pH 7.4), 24 hours at room temperature
# Procedure: To assess the solubility of test compounds 10 µL of a 10 mM solution in DMSO was added to the lower chamber of a whatman miniuniprep (PTFE Filter Media with Polypropylene Housing) vial. 490 µL of 50 mM phosphate buffer (pH 7.4) was added to the lower chamber, the samples were vortexed for at least two minutes and then shaken on a shaker for 24 hours at room temperature at the speed of 880 rpm. The samples were then centrifuged for 20 minutes at 4000 rpm, compressed and the filtrates were injected into a HPLC-UV and LC-MS/MS system to calculate the concentration compared to the standard curve using a ACQUITY UPLC BEH C18 1.7 µm 2.1 * 50 mm column.
# [5] = target: T2, recombinant QC enzyme (Homo sapiens, UniProt Q16769); test: Assay 2 - QC potency, fluorescent enzymatic assay (H-Gln-AMC, coupled pGAPase detection); format: biochemical; conditions: 1 hour at 37°C
# T2 construct: bacterial expression of residues 33-361 of uniprot ID Q16769, fused to a His tag; His tag (cleaved yes); made in house
# Procedure: After scale-up, expression and lysis, protein was purified by Ni-NTA IMAC, dialysed in the presence of Factor Xa, further purified by Ni-NTA reverse IMAC and finally filtrated for size on a Superdex 200 16/60 column. Final protein was concentrated using a spin concentrator at 10 kDa molecular weight cut-off and formulated in 150 mM NaCl, 50 mM Tris-HCl, 50% Glycerol, pH 8.0.
# as §3, with “50 mM” for “50mM”, “h-Gln-AMC” for “hGln-AMC”, “Tris-HCl” for “Tris-HCl 25”, “QC” for “isoQC”
# 25 µL of the pyroglutamylation reaction mixture was transferred into an empty plate and to that, 25 µL of the pGAPase enzyme solution was added. Plates were then incubated for 25 minutes at room temperature before fluorescence readings were taken on an Envision2 plate reader with excitation set at 380 nm and emission at 450 nm.
# Controls were taken along containing pyroglutamylated-AMC (Bachem, dissolved at 10 mM in DMSO) instead of H-Gln-AMC to control for pGAPase inhibition.
# as §4
# T1 sequence (Q9NXS2 53-382): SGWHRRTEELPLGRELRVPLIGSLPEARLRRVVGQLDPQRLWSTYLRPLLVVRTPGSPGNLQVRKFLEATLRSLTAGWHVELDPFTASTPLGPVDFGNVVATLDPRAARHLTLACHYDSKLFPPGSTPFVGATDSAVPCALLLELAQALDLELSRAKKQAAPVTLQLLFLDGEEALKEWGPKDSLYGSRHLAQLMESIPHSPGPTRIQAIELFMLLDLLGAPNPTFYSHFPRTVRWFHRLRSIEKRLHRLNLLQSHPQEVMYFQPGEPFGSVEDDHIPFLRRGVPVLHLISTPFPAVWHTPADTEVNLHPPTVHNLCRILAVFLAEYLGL
# T2 sequence (Q16769 33-361): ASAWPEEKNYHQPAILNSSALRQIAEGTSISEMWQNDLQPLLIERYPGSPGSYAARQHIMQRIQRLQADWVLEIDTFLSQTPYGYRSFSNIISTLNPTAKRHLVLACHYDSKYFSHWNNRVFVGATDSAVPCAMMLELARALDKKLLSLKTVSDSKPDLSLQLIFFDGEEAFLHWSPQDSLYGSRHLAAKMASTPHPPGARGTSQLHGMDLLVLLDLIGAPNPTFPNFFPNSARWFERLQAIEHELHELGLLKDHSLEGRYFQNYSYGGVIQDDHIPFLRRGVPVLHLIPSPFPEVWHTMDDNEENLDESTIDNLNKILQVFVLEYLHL
SMILES,CLint scaled at 1 µM [1] [mL/min/kg],IC50 [2] [nM],CLint scaled at 1 µM [3] [mL/min/kg],solubility at 24 h [4] [µM],IC50 [5] [nM]
"O=C1OCC(c2ccc(N3CCCC3)cc2)N1c1ccc2[nH]cnc2c1 (single isomer, unassigned) [(18)-ent2]",1070,23.9,32.8,60,31.2
"O=C1OCC(c2ccc(C3CCC(F)(F)CC3)cc2)N1c1ccc2[nH]cnc2c1 (single isomer, unassigned) [(19)-ent2]",49.9,35.8,21.8,42,–
O=C1OC[C@H](c2ccc(-c3cnn(C(F)(F)F)c3)cc2F)N1c1ccc2[nH]cnc2c1 [Compound (1)],–,1.7,–,121,10.3
